# Laboratory results reported in PMC9410764, “EmCyclinD-EmCDK4/6 complex is involved in the host EGF-mediated proliferation of Echinococcus multilocularis germinative cells via the EGFR-ERK pathway” (Frontiers in Microbiology, 2022).
# Molecular target: T1, EmCyclinD-EmCDK4/6 complex (Echinococcus multilocularis, UniProt A0A068YJR9)
# T1 construct: gene EmuJ_001021000
# T1 sequence (A0A068YJR9 1-711): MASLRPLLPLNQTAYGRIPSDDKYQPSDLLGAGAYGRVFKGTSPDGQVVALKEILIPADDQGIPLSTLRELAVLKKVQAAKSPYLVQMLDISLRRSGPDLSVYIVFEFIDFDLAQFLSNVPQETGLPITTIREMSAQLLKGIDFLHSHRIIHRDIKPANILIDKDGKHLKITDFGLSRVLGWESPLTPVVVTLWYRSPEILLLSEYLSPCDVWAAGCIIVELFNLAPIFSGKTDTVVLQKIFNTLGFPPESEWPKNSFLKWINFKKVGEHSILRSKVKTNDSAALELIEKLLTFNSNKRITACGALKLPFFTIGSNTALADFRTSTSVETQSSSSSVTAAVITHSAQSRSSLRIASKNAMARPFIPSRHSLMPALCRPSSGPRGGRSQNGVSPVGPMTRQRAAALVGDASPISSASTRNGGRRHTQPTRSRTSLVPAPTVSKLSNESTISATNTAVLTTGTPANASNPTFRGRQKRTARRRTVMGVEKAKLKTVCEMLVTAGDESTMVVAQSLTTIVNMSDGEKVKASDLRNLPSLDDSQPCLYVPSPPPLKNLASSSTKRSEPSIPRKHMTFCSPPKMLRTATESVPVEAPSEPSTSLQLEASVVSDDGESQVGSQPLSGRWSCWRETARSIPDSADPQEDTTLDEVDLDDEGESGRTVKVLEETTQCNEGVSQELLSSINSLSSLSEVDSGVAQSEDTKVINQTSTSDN
# T1 sequence (A0A068Y4X2 1-386 partner): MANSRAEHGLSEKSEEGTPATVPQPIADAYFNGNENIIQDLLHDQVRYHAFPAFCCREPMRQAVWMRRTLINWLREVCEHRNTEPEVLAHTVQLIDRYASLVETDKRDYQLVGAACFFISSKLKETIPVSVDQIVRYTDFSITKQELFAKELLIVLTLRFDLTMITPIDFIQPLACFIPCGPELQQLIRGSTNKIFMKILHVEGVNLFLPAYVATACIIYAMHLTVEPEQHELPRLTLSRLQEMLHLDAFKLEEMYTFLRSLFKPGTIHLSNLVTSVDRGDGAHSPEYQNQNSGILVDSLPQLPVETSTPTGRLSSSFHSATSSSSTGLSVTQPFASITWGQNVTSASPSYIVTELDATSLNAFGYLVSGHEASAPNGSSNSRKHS
# Details: human Rb1 substrate (3 ug); 25 uM ATP, 20 mM MgCl2, 1 mM DTT, pH 7.5, RT, 20 min
compound,measurement,value
Nc1ncnc2c1ncn2[C@@H]1O[C@H](COP(=O)(O)OP(=O)(O)OP(=O)(O)O)[C@@H](O)[C@H]1O [ATP],kinase activity,the EmCDK4/6-EmCyclinD complex displayed kinase activity against human Rb1
